According to patent publication US10393755B2, “Compositions and methods for treating eye infections and disease” (UNIVERSITY OF VIRGINIA PATENT FOUNDATION, priority 2014, dated 2019):
Substitutions are numbered along the chain they refer to. Names and notes keep the numbering of the source. No end group written: not given here.

What was measured:
HCE-T cells [1] = experiment: Lacritin accelerated autophagy and FOXO3 phosphorylation, inhibitors; type: cell-based, human
Description: Lacritin targeting of corneal sensory neurons. Adrenergic α2C selective antagonist MK912 inhibits lacritin accelerated autophagy in HCE-T cells, as does the syndecan-1 inhibitor xyloside. […] Activity profiles of corneal neurons before, during and 1 hr during/after 10 μM lacritin reveal a small inhibition (from ˜12 to ˜8 spikes/s) follows immediately after the application of lacritin presumably due to α2 adrenergic receptor activation which inhibits TRPM8 channels. Removal of this inhibition after 1 hr of lacritin and washout causes an enhanced excitation of dry (from ˜20 to ˜23 spikes/s) and wet response (from ˜12 to ˜16 spikes/s).

HCE-T cells [2] = experiment: Viability (MTT) / cytoprotection of IFNG/TNF stressed cells; type: cell-based, human; settings: for Cytoprotective activity of lacritin truncation and point mutants: 10 nM, IFNG/TNF stressed cells
Description: Viability was monitored using the 3-(4,5-dimethyl[…])-2,5-diphenyltetrazolium bromide) (MTT) reduction assay (Invitrogen) or a Nucleocounter (New Brunswick Scientific, Edison, N.J.). Cells were seeded overnight in 24-well plates at a density of 500 cells/mm2 to give rise to ˜80% confluence the next day. Then cells were sensitized overnight in IFNG (100 units/ml) in α-MEM and treated in triplicate for 15 min with 10 nm lacritin or lacritin deletion or point mutants or with different lacritin doses in α-MEM together with TNF as described above.
Inclusion of inhibitors was simultaneous with the addition of lacritin or C-25 in all viability and other experiments except where otherwise noted. Inhibitors included PI103 (0.5 μm; EMD, Darmstadt, Germany), rapamycin (10 and 100 nm; EMD), and cyclosporin A (0.1 μm; EMD). One exception was 4-methylumbelliferyl-β-d-xylopyranoside (“xyloside”; 70 and 80 nm; Sigma), which was added during IFNG sensitization and during treatment with TNF and lacritin. The assay was completed by addition of MTT (5 mg/ml) to each well (at 37° C. for 4 h) followed by isopropanol with 0.04 n HCl and measurement at 570 nm using a reference wavelength of 630 nm. Viability was assayed in a Nucleocounter (New Brunswick Scientific).

bacteria = experiment: Lacritin inhibition (colony count) assay, bacterium not given; type: cell-based; settings: synthetic peptides
Description: (§1) Bacterial Growth, SYTOX Green Assays, and on Column Cleavage—E. coli (ATCC (Manassas Va.) catalog no. 10536), S. epidermidis (ATCC catalog no. 12228), and P. aeruginosa (ATCC catalog no. 9027) were grown to mid-log phase in 50 ml of Luria-Bertani (LB) medium and washed three times in phosphate buffer containing 10 mM NaCl (pH 7.2; PB—NaCl) with centrifugation. Pellets were resuspended in 1 ml of PB—NaCl.
(§2) For lacritin inhibition assays, 50 ul of bacterial pellets each diluted 1:100 in PB—NaCl were incubated for 1.5 h (37° C.) with 100 ul of lacritin, lacritin truncations, or synthetic peptides at a final concentration of 0.1-6 uM. Mixtures were diluted 1:10 in PB—NaCl before plating 100 ul in quadruplicate on LB agar plates for overnight growth at 37° C. Colonies were manually counted. In other experiments, mid-log E. coli was treated at 37° C. for 0, 1, 2, or 3 h with 2 uM lacritin or lacritin truncations or with ampicillin (5 uM) or tetracycline (2 uM). After each treatment, 100 ul was centrifuged, resuspended in 1 ml of PB—NaCl, and plated (100 ul) onto LB agar for overnight growth (37° C.) and colony counting.

[3] = type: in vitro ADME, human
Description: A limitation of most synthetic peptide drugs is their protease sensitivity. […] Retropepsin would inactivate LACRIPEP, while cathepsin K would have no effect. However neither protease is found in normal human tears. Nonetheless, tears are rich in other proteases. We therefore incubated LACRIPEP in normal human tears at 37° C. for 2, 4, 6 and 16 hr. For immunoblotting, we first removed all endogenous lacritin by immunodepletion. […] (FIG. 6B).

E. coli = experiment: Lacritin inhibition (colony count) assay, E. coli; type: cell-based; settings: dose response studies; read-out: Half-maximal inhibition
Description: as §1, §2

P. aeruginosa = experiment: Lacritin inhibition (colony count) assay, P. aeruginosa; type: cell-based; settings: dose response studies; read-out: Half-maximal inhibition
Description: as §1, §2

[4] = Phase behavior and nanoparticle formation (optical density, DLS, TEM); type: physicochemical; settings: optical density
Description: The phase diagram for LSI fusion protein was characterized by optical density change at 350 nm as a function of solution temperature using a DU800 UV-Vis Spectrophotometer (Beckman Coulter, Brea, Calif.). Tt was defined at the point of the maximum first derivative. Self-assembly of nanoparticles was measured using dynamic light scattering (DLS) using a DynaPro-LSR Plate Reader (Wyatt Technology, Santa Barbara, Calif.). Light scattering data were collected at regular temperature intervals (1° C.) as solutions were heated from 5 to 50° C. The results were analyzed using a Rayleigh sphere model and fitted into a cumulant algorithm based on the sum-of-squares value.
The TEM imaging was carried out on a FEI Tecnai 12 TWIN microscope (Hillsboro, Oreg.) at 100 kV. Briefly, a 100 uM solution (5 uL) was initially deposited on a copper grid with carbon film (CF400-Cu, Election Microscopy Sciences, Hatfield, Pa.). After removing the excess amount of solution with filter paper, the samples were negatively stained with 2% uranyl acetate, followed by removing excess uranyl acetate after 30 s. b The samples were then dried under room temperature for at least 3 h before use in imaging.

HCE-T cells [5] = experiment: FOXO3 translocation assay in IFNG/TNF stressed HCE-T cells; type: cell-based, human; settings: 10 nM, interferon-γ and TNF stressed HCE-T cells
Description: For FOXO3 translocation assays, HCE-T cells were grown in triplicate to subconfluence (˜50%) on coverslips in α-MEM (5.54 mm glucose), sensitized overnight in IFNG (100 units/ml; Roche Applied Science), and treated for 15 min with normal or dry eye tears diluted 1:100 in α-MEM together with TNF (50 ng/ml; PeproTech, Rocky Hill, N.J.) without or with 10 nm lacritin or C-25. Cells were washed, fixed with 4% paraformaldehyde, and immunostained for FOXO3 (1:200; Millipore, Billerica, Mass.) followed by goat anti-rabbit secondary antibody and visualization on a Zeiss LSM 700 microscope.

syndecan-1 = target: T1, syndecan-1 (Homo sapiens, UniProt P18827, L136Q); experiment: Binding to syndecan-1
T1 sequence (P18827 23-310 L136Q): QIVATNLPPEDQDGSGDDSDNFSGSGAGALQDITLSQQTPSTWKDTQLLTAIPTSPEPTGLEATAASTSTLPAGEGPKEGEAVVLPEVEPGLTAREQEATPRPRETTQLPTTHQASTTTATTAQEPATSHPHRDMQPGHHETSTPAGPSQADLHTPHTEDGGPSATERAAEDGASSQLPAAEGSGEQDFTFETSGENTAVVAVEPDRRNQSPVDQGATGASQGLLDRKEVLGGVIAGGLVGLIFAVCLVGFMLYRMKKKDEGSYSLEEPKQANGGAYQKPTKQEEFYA

CN1CC[C@]2(CCN3CCc4c(oc5ccccc45)[C@@H]3C2)N(C)C1=O [MK912]
Effect on lacritin stimulated FOXO3 phosphorylation (HCE-T cells [1]): inhibit | Effect on lacritin accelerated autophagy (HCE-T cells [1]; HCE-T cells): inhibits

Cc1cc(=O)oc2cc(O[C@@H]3OC[C@@H](O)[C@H](O)[C@H]3O)ccc12 [xyloside, 4-methylumbelliferyl-β-d-xylopyranoside]
Effect on lacritin cytoprotective activity (HCE-T cells [2]; cells cultured overnight in xyloside): completely abrogated | Effect on lacritin stimulated FOXO3 phosphorylation (HCE-T cells [1]): inhibit

AKAGKGMHGGVPGG (listed as Homo sapiens) [N-80/C-25]
Colonies with synthetic peptides (bacteria): colonies were abundant

Ac-KQFIENGSEFAQKLLKKFS-NH2 [N-94/C-6, KQFIENGSEFAQKLLKKFS]
Activity of synthetic peptide relative to lacritin (HCE-T cells [2]; generated synthetically): as potent as lacritin | Epitopes by immunoblotting after incubation in tears [3]: loses epitopes | Stability relative to LACRIPEP [3]: not as stable | Bactericidal activity of synthetic peptides (bacteria): slightly so | Bactericidal activity of synthetic peptides (bacteria; listed as SEQ ID NO: 5): substantially reduced the bactericidal activity

Ac-KQFIENGSEFAQKLLKKFSLLKPWA (N-terminus assumed) [LACRIPEP]
Time stable in human tears (immunoblot) [3]: at least 16 hr

FAQKLLKKFSLLKPWA [N-104]
IC50 (E. coli): ~1000 nM | IC50 (P. aeruginosa): 1000 to 1500 nM | Bactericidal activity of synthetic peptides (bacteria): fully active

LKSIVEKSILLTEQALAKAGKGMH (listed as Homo sapiens) [N-64/C-31]
Colonies with synthetic peptides (bacteria): colonies were abundant

B1: LS96: lacritin fused to soluble ELP (VPGSG)96; thermally nonresponsive control (protein)
chain: GEDASSDSTGADPAQEAGTSKPNEEISGPAEPASPPETTTTAQETSAAAVQGTAKVTSSRQELNPLKSIVEKSILLTEQALAKAGKGMHGGVPGGKQFIENGSEFAQKLLKKFSLLKPWAGLVPRGSGVPGSGY
modifications: ELP lacritin fusion construct; (129)..(133) the sequence VPGSG is directly repeated 96 times
notes: lacritin fused to soluble ELP (VPGSG)96; thermally nonresponsive control
Phase transitions in phosphate buffered saline [4]: does not display any observable phase transitions

B2: Cross-linked lacritin: lacritin monomer cross-linked into inactive multimers by tissue transglutaminase (protein)
chain: EDASSDSTGADPAQEAGTSKPNEEISGPAEPASPPETTTTAQETSAAAVQGTAKVTSSRQELNPLKSIVEKSILLTEQALAKAGKGMHGGVPGGKQFIENGSEFAQKLLKKFSLLKPWA
FOXO3 cytoplasmic staining (pro-survival activity) (HCE-T cells [5]): less active | FOXO3 cytoplasmic staining (pro-survival activity) (HCE-T cells [5]; listed as tissue transglutaminase polymerized lacritin): inactive | Binding to syndecan-1 (syndecan-1): substantially less

B3: F104S: lacritin point mutant (protein, UniProt Q9GZZ8 20-138, looked up, variant F104S)
Extracellular glycoprotein …: B2 chain with F104S
Cytoprotective activity of lacritin truncation and point mutants (HCE-T cells [2]): significantly less active

B4: I98S: lacritin point mutant (protein, UniProt Q9GZZ8 20-138, looked up, variant I98S)
Extracellular glycoprotein …: B2 chain with I98S
Cytoprotective activity of lacritin truncation and point mutants (HCE-T cells [2]): significantly less active

B5: F112S: lacritin point mutant (protein, UniProt Q9GZZ8 20-138, looked up, variant F112S)
Extracellular glycoprotein …: B2 chain with F112S
Cytoprotective activity of lacritin truncation and point mutants (HCE-T cells [2]): significantly less active

B6: I73S: lacritin point mutant (protein, UniProt Q9GZZ8 20-138, looked up, variant I73S)
Extracellular glycoprotein …: B2 chain with I73S
Cytoprotective activity of lacritin truncation and point mutants (HCE-T cells [2]): unaffected

B7: L65S: lacritin point mutant (protein, UniProt Q9GZZ8 20-138, looked up, variant L65S)
Extracellular glycoprotein …: B2 chain with L65S
Cytoprotective activity of lacritin truncation and point mutants (HCE-T cells [2]): unaffected

B8: L108S/L109S/F112S: lacritin triple point mutant (protein, UniProt Q9GZZ8 20-138, looked up, variant L108S L109S F112S)
Extracellular glycoprotein …: B2 chain with L108S, L109S, F112S
Cytoprotective activity of lacritin truncation and point mutants (HCE-T cells [2]): significantly less active

B9: V69S: lacritin point mutant (protein, UniProt Q9GZZ8 20-138, looked up, variant V69S)
Extracellular glycoprotein …: B2 chain with V69S
Cytoprotective activity of lacritin truncation and point mutants (HCE-T cells [2]): unaffected
